Assay results: paper PMC10583824, “The rational design of ARUK2007145, a dual inhibitor of the α and γ isoforms of the lipid kinase phosphatidylinositol 5-phosphate 4-kinase (PI5P4K)” (RSC Medicinal Chemistry, 2023)
Values after ≈ are worked out from the molar mass of the structure shown.

Experiments:
[1] = tested on: MDCK-MDR1 cells; assay: MDR1-MDCK bi-directional permeability and efflux; conditions: MDCK-MDR1 cells; A2B; 10 µM
Experimental: (§2) MDR1-MDCK Permeability (bi-directional): was performed by Cyprotex Discovery. Briefly, compounds were administered at 10 µM (1% DMSO final) to the apical or basolateral side of a confluent monolayer of MDR1-MDCK cells, then incubated at 37 °C for 60 minutes before appearance on the opposite side of the monolayer was determined LC-MS/MS. The efflux ratio (ER) is calculated from the ratio of B-A to A-B permeabilities.

[2] = tested on: MDR1 (P-gp); assay: MDR1-MDCK bi-directional permeability and efflux; conditions: dog, MDCK-MDR1
Experimental: as §2

[3] = target: T1, PI5P4Kγ+ (Homo sapiens, UniProt Q8TBX8, D138G/D197E/E133P/E135D/E153T/E196G/G139A/N195G/S132L/S134N); assay: biochemical
T1 sequence (Q8TBX8 with tags, fused parts or gaps INS131LPN/S132D/E133S/S134Q/E135A/G136R/D138G/G139A/E153T/N195G/E196G/D197E): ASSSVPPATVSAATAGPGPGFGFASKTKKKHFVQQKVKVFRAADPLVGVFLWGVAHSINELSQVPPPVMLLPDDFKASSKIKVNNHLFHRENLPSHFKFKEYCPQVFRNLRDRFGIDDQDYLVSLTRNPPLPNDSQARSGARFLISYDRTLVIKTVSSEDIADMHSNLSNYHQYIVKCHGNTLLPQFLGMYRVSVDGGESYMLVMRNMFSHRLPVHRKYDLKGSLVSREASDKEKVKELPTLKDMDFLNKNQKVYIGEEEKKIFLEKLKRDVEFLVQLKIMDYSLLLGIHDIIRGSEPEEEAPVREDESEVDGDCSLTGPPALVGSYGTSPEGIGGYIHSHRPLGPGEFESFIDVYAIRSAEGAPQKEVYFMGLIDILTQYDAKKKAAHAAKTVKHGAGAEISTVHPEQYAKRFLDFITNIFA

[4] = target: T2, PI5P4Kα (Homo sapiens, UniProt P48426); conditions: for PI5P4Kα pIC50: ADP-Glo, footnote a: inconsistent replicates, value shown is upper limit
T2 sequence (P48426 1-406): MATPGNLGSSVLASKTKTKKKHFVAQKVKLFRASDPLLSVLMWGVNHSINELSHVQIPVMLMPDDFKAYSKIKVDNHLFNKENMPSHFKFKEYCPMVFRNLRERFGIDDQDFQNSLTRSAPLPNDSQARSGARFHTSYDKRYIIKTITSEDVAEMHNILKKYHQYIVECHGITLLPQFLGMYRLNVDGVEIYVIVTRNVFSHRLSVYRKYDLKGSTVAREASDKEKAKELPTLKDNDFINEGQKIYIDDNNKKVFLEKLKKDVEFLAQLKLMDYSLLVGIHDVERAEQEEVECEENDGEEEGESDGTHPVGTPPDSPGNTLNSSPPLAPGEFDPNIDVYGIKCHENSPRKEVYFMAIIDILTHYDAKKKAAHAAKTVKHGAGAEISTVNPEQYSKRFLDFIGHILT

[5] = Mouse liver microsome stability; assay type: in vitro ADME; conditions: mouse liver microsomes half-life; read-out: MLM t½
Experimental: (§1) ADMET experimental methods […]
Mouse Microsomal stability: analysis was performed by Cyprotex Discovery. Briefly, test compounds in DMSO
protein/mL) in the presence of NADPH (1 mM) at 37 °C. Aliquots were taken at time intervals (0, 5, 15, 30 and
compound remaining, allowing the determination of the half-life for the compound.

[6] = tested on: PI5P4Kγ+; conditions: ratio PI5P4Kα IC50 / PI5P4Kγ+ IC50, ADP-Glo
[7] = Turbidimetric aqueous solubility; assay type: physicochemical; conditions: pH 7.4, turbidimetric
Experimental: as §1
Turbidimetric aqueous solubility: analysis was performed by Cyprotex Discovery. Compound in DMSO at 10 mM was serially diluted to solutions of 0.1, 0.3, 1 and 3 mM in DMSO, then further diluted 1 in 100 in buffer (0.01 M PBS, pH 7.4, 1% DMSO final). 7 replicate wells of each dilution were equilibrated for 2 hours at 37 °C before absorbance is measured at 620 nm. The solubility is estimated from the concentration of test compound that produces an increase in absorbance above vehicle control (1% DMSO in buffer). […]

[8] = ADP-Glo pIC50 PI5P4Kγ+, Table S1, two decimals, asterisk not explained
[9] = PI5P4Kγ+ pIC50, ADP-Glo, footnote a: inconsistent replicates, value shown is upper limit

Cc1ccncc1-c1cc2c(Nc3ccc(S(C)(=O)=O)cc3)ncnc2s1 [Compound 14]
P app (A2B) [1]: 2.45 10^−6 cm s^−1 | efflux ratio at 60 min, 10 µM [2]: 34.1 | IC50 [3, 8]: 12.3 nM | IC50 [3, 9]: 12.6 nM | PI5P4Kα pIC50 [4]: 6.0 | half-life at 1 µM [5]: 8.2 min | Fold-selectivity (α IC50/γ IC50) [6]: 79 | solubility at 2 h [7]: 30 µM (≈ 11.9 µg/mL)

Cc1ncccc1-c1cc2ncnc(Nc3ccc(C4CC4)cc3)c2s1 [Compound 38]
P app (A2B) [1]: 9.95 10^−6 cm s^−1 | efflux ratio at 60 min, 10 µM [2]: 0.91 | IC50 [3, 8]: 52.5 nM | IC50 [3, 9]: 50.1 nM | PI5P4Kα pIC50 [4]: 7.0 | ADP-Glo pIC50 PI5P4Kα ([4]; Table S1, two decimals, asterisk not explained): 7.01 | half-life at 1 µM [5]: 1.94 min | Fold-selectivity (α IC50/γ IC50) [6]: 1.9 | solubility at 2 h [7]: 3 µM (≈ 1.08 µg/mL)
